Some test systems named below: ACHN renal; CCRF-CEM leukemia; HCT-15 colon; MOLT-4 leukemia; OVCAR-4 ovarian; RXF 393 renal; SF-295 CNS; SK-MEL-2 melanoma; SK-MEL-5 melanoma.
What all share (assay): inhibition of tumour cell growth, NCI panel, 48 h

GI50 and TGI data for nine compounds are collected here from PubChem BioAssay (NCI).

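A five-concentration, 48-hour dose response in 96-well plates underlies each endpoint, interpolated linearly between surrounding concentrations. Abbreviation: GI50, concentration required for 50% inhibition of growth. TGI is the concentration that stops growth completely.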

As for `COc1cccc2c1C(=O)c1c(O)c3c(c(O)c1C2=O)C[C@](O)(C(=O)CO)C[C@H]3O[C@@H]1C[C@@H](NC(=O)CCCCCN(C)C2(c3ccc(F)cc3)CC3CCC2C3)[C@H](O)[C@@H](C)O1` (stereo partly specified), the GI50 in the experiment on ACHN renal is 1.75 µM; with CCRF-CEM leukemia it was 1.13 µM; with HCT-15 colon it was 2.19 µM; with MOLT-4 leukemia, 0.304 µM; with OVCAR-4 ovarian, 1.09 µM; in the experiment on RXF 393 renal, 2.71 µM. For the same compound, the GI50 with SF-295 CNS is 5.79 µM; in the experiment on SK-MEL-2 melanoma it was 1.18 µM; in the experiment on SK-MEL-5 melanoma, 7.65 µM. The TGI in the experiment on ACHN renal came to 6.66 µM; in the experiment with CCRF-CEM leukemia it was 3.92 µM; in the experiment with HCT-15 colon it was 9.11 µM; with MOLT-4 leukemia, 2.61 µM; with OVCAR-4 ovarian, 2.69 µM; in the experiment on RXF 393 renal, 10.5 µM. In addition, the TGI is 13.3 µM in the experiment on SF-295 CNS, 2.52 µM in the experiment with SK-MEL-2 melanoma and 15.6 µM in the experiment with SK-MEL-5 melanoma.

`CN(C)C(n1cc2c(c1)-c1ccc(Cl)cc1C(c1ccccc1F)=NC2)n1cc2c(c1)-c1ccc(Cl)cc1C(c1ccccc1F)=NC2`: the TGI was above 100 µM in the experiment with ACHN renal; above 100 µM with CCRF-CEM leukemia; above 100 µM in the experiment on HCT-15 colon; above 100 µM in the experiment on MOLT-4 leukemia; above 100 µM in the experiment with OVCAR-4 ovarian; 66.6 µM with RXF 393 renal. In addition, the TGI in the experiment on SF-295 CNS, with SK-MEL-2 melanoma and with SK-MEL-5 melanoma was above 100 µM throughout.

With `CCCN1C(=O)N(CCC)C2C1NC(=S)N2/N=C/C=C/c1ccccc1OC` (stereo unspecified), the GI50 is 0.631 µM in the experiment with ACHN renal; 0.448 µM with CCRF-CEM leukemia; 0.537 µM with HCT-15 colon; 0.576 µM in the experiment with MOLT-4 leukemia; 1.95 µM in the experiment with OVCAR-4 ovarian; 0.484 µM in the experiment with RXF 393 renal. Besides, the GI50 with SF-295 CNS was 0.487 µM; with SK-MEL-2 melanoma, 2.08 µM; in the experiment on SK-MEL-5 melanoma, 0.516 µM. The TGI with ACHN renal is 81.1 µM; with CCRF-CEM leukemia it was above 100 µM; with HCT-15 colon, above 100 µM; with MOLT-4 leukemia, above 66.2 µM; in the experiment with OVCAR-4 ovarian, above 100 µM; in the experiment with RXF 393 renal it was 85.9 µM. The TGI is 29.4 µM with SF-295 CNS, above 63.4 µM with SK-MEL-2 melanoma and 15.9 µM in the experiment on SK-MEL-5 melanoma.

With `COc1c(OC[C@H](O)CN2CCOCC2)ccc2c3n(c(=NC(=O)c4cccnc4C)nc12)CCN3`, the GI50 in the experiment with ACHN renal was 0.411 µM; with CCRF-CEM leukemia it was 1.67 µM; in the experiment on HCT-15 colon, 1.62 µM; in the experiment with MOLT-4 leukemia, 0.305 µM; with OVCAR-4 ovarian it was above 50 µM; in the experiment with RXF 393 renal, 0.192 µM. For the same compound, the GI50 is 0.541 µM in the experiment with SF-295 CNS, above 50 µM in the experiment with SK-MEL-2 melanoma and above 50 µM in the experiment on SK-MEL-5 melanoma. Besides, the TGI in the experiment with ACHN renal is above 50 µM; in the experiment on CCRF-CEM leukemia it was above 50 µM; in the experiment with HCT-15 colon, above 50 µM; in the experiment on MOLT-4 leukemia, above 50 µM; in the experiment on OVCAR-4 ovarian, above 50 µM; with RXF 393 renal, 2.38 µM. The TGI was 17.2 µM with SF-295 CNS, above 50 µM with SK-MEL-2 melanoma and above 50 µM in the experiment with SK-MEL-5 melanoma.

On to `COc1cc2c3c(n(C)c(=O)c2cc1OC)-c1cc2c(cc1/C3=C\CN)OCO2`, for which the GI50 was 0.037 µM in the experiment with ACHN renal; 0.124 µM in the experiment on CCRF-CEM leukemia; 0.778 µM in the experiment with HCT-15 colon; below 0.0208 µM in the experiment with MOLT-4 leukemia; 5.55 µM in the experiment on OVCAR-4 ovarian; 3.17 µM in the experiment on RXF 393 renal. In addition, the GI50 is 24.1 µM in the experiment on SK-MEL-2 melanoma and 0.296 µM in the experiment with SK-MEL-5 melanoma. In addition, the TGI in the experiment with ACHN renal is 0.625 µM; in the experiment on CCRF-CEM leukemia, 6.97 µM; in the experiment with HCT-15 colon, 19.8 µM; in the experiment on MOLT-4 leukemia it was 0.433 µM; in the experiment on OVCAR-4 ovarian it was above 27.2 µM; in the experiment on RXF 393 renal, above 45.8 µM. Besides, the TGI with SF-295 CNS was 0.614 µM; in the experiment on SK-MEL-2 melanoma, above 100 µM; in the experiment on SK-MEL-5 melanoma it was 2.32 µM.

With `C[C@@H]1CC[C@@H]2[C@@H]1[C@H](OC(=O)/C=C/c1ccccc1)[C@]1(C3CCCCC3)C[C@@H](OC(=O)CO)[C@@]2(C)O1`, the GI50 was 4.45 µM in the experiment on CCRF-CEM leukemia; 2.44 µM in the experiment with HCT-15 colon; 2.61 µM in the experiment on MOLT-4 leukemia; 3.92 µM with OVCAR-4 ovarian; 0.0779 µM in the experiment on RXF 393 renal; 3.6 µM in the experiment on SF-295 CNS. Besides, the GI50 in the experiment on SK-MEL-2 melanoma was 4.03 µM; in the experiment with SK-MEL-5 melanoma, 2.36 µM. In addition, the TGI is 14.1 µM in the experiment with CCRF-CEM leukemia; 7.93 µM with HCT-15 colon; 6.07 µM with MOLT-4 leukemia; 16 µM in the experiment with OVCAR-4 ovarian; 3.16 µM with RXF 393 renal; 13.1 µM in the experiment on SF-295 CNS. Further, the TGI with SK-MEL-2 melanoma amounted to 16.1 µM; in the experiment with SK-MEL-5 melanoma, 6.11 µM.

`CCOc1ccc(NC(=O)C(=O)CC(=O)c2c(C)n([O-])c3ccccc3[n+]2=O)cc1`: the TGI in the experiment with ACHN renal, in the experiment with CCRF-CEM leukemia, in the experiment with HCT-15 colon, with MOLT-4 leukemia, in the experiment on OVCAR-4 ovarian and with RXF 393 renal was above 100 µM in each case. Also, the TGI with SF-295 CNS, in the experiment on SK-MEL-2 melanoma and in the experiment on SK-MEL-5 melanoma was above 100 µM throughout.

With `[Cl][Hg][c]1cc[c]([Hg][Cl])o1`, the GI50 is 1.85 µM in the experiment with ACHN renal; 0.295 µM with CCRF-CEM leukemia; 2.05 µM with HCT-15 colon; 1.58 µM with MOLT-4 leukemia; 1.63 µM with OVCAR-4 ovarian; 1.41 µM with RXF 393 renal. Besides, the GI50 in the experiment with SF-295 CNS was 19.4 µM; in the experiment on SK-MEL-2 melanoma, 2.56 µM; with SK-MEL-5 melanoma, 2.43 µM. The TGI in the experiment with ACHN renal is 3.39 µM; in the experiment with CCRF-CEM leukemia, 8.75 µM; in the experiment on HCT-15 colon, 6.06 µM; in the experiment with MOLT-4 leukemia, 8.59 µM; in the experiment on OVCAR-4 ovarian, 4.24 µM; with RXF 393 renal, 2.92 µM. In addition, the TGI was determined as 58.6 µM in the experiment on SF-295 CNS, 11.3 µM in the experiment with SK-MEL-2 melanoma and 9.6 µM with SK-MEL-5 melanoma.

Regarding `C=CCCCCOc1ccccc1-c1cnc(OCCCCC=C)n1C`, the GI50 with ACHN renal was 6.8 µM; with CCRF-CEM leukemia, 4.27 µM; with HCT-15 colon it was 4 µM; with MOLT-4 leukemia it was 4.54 µM; in the experiment with OVCAR-4 ovarian it was 10.3 µM; with RXF 393 renal, 5.23 µM. Moreover, the results for the GI50 with SF-295 CNS, in the experiment with SK-MEL-2 melanoma and in the experiment with SK-MEL-5 melanoma were 4.03 µM, 2.56 µM and 3.69 µM, respectively. Further, the TGI in the experiment with ACHN renal was 38.9 µM; in the experiment on CCRF-CEM leukemia, 20.4 µM; with HCT-15 colon, 16.3 µM; in the experiment with MOLT-4 leukemia it was 18.7 µM; with OVCAR-4 ovarian it was 50.7 µM; in the experiment on RXF 393 renal it was 18.2 µM. In addition, the figures for the TGI with SF-295 CNS, in the experiment with SK-MEL-2 melanoma and in the experiment on SK-MEL-5 melanoma were 20.1 µM, 5.88 µM and 13.7 µM, respectively.
